Test results as given in US10154992B2, “Compounds and methods for treating HIV infection” (THE REGENTS OF THE UNIVERSITY OF CALIFORNIA, priority 2016, dated 2018).

System: not listed separately
Assay: MTT cell viability run in parallel with the Tat-hybrid assay
Format: cell-based
Conditions: human, Tat-hybrid reporter cell lines (HeLa); Table 5; read-out: Tat hybrid TC50
Description: (§1) Cells were counted and plated into white 384-well or 96-well cell-culture treated assay plates and compounds were added. After 48 hours, the cells were prepared for luminescence assays that were performed on a plate reader (Tecan Evolution or MD Analyst). The cytotoxicity of each compound was determined in parallel via MTT-based cell viability assays.
as §1, with “Tat hybrid reporter assay. […] Previously characterized thienopyridines and diaminoacridine were used as controls. Cells” for “Cells”, “384-well” for “384-well or 96-well”, “lumincescence” for “luminescence”, “assays. […]” for “assays.”

| SMILES | CC50 at 48 h |
| --- | --- |
| NC(=O)c1sc2cncc(N3CCOCC3)c2c1N | < 40 µM |
| NC(=O)c1cccc(-c2cncc3sc(C(N)=O)c(N)c23)c1 | < 40 µM |
| CN(Cc1cccs1)c1cncc2sc(C(N)=O)c(N)c12 | < 40 µM |
| Cc1cccc(N2CCN(c3cncc4sc(C(N)=O)c(N)c34)CC2)n1 | < 40 µM |
| Cn1cc(CC(=O)N2CCN(c3cncc4sc(C(N)=O)c(N)c34)CC2)c2ccccc21 | < 40 µM |
| NC(=O)c1sc2cncc(N3CCN(c4ccccc4O)CC3)c2c1N | < 40 µM |
| CC(C)c1n[nH]c2c1CN(c1cncc3sc(C(N)=O)c(N)c13)CC2 | < 40 µM |
| NC(=O)c1sc2cncc(N3CCCC(c4nc5ccccc5o4)C3)c2c1N (stereo not drawn) | < 40 µM |
| NC(=O)c1sc2cncc(-c3ccncc3)c2c1N | > 40 µM |
| CN(C=O)c1ccc(C(=O)N2CCN(c3cncc4sc(C(N)=O)c(N)c34)CC2)cc1 | < 40 µM |
| Cc1ccc(C(=O)N2CCN(c3cncc4sc(C(N)=O)c(N)c34)CC2)cn1 | < 40 µM |
| COc1ccc(C(=O)N2CCN(c3cncc4sc(C(N)=O)c(N)c34)CC2)cc1F | < 40 µM |
| NC(=O)c1sc2cncc(-c3cncc4ccccc34)c2c1N | > 40 µM |
| NC(=O)c1sc2cncc(-c3cccc(-c4ccccc4)c3)c2c1N | < 40 µM |
| CC(=O)N1CCN(c2cncc3sc(C(N)=O)cc23)CC1 | > 40 µM |
| CN1CCN(c2cncc3sc(C(N)=O)c(N)c23)CC1 | < 40 µM |
| CS(=O)(=O)c1ccc(C(=O)N2CCN(c3cncc4sc(C(N)=O)c(N)c34)CC2)cc1 | < 40 µM |
| Cc1noc(C)c1C(=O)N1CCN(c2cncc3sc(C(N)=O)c(N)c23)CC1 | < 40 µM |
| COc1cc(C(=O)N2CCN(c3cncc4sc(C(N)=O)c(N)c34)CC2)ccc1C | < 40 µM |
| NC(=O)c1sc2cncc(-c3cccc4cccnc34)c2c1N | > 40 µM |
| NC(=O)c1sc2cncc(Cl)c2c1N | < 40 µM |

Same assay, conditions: human, Tat-hybrid reporter cell lines (HeLa); Table 6; second 'EC50' entry of the cell, values D/E

| SMILES | EC50 at 48 h |
| --- | --- |
| Cc1cc(C(F)F)nc2sc(C(N)=O)c(N)c12 | > 40 µM |
| Cc1cc(C(F)(F)F)nc2sc(C(N)=O)c(N)c12 | > 40 µM |
| CC(C)c1ccc2nc3sc(C(N)=O)c(N)c3cc2c1 | < 40 µM |

System: Tat-hybrid reporter cell lines (HeLa)
Assay: as above
Format: cell-based
Conditions: Table 6; at 50,000 nM
Description: as §1
as §1, with “Tat hybrid reporter assay. […] Previously characterized thienopyridines and diaminoacridine were used as controls. Cells” for “Cells”, “384-well” for “384-well or 96-well”, “lumincescence” for “luminescence”, “assays. […]” for “assays.”

| SMILES | Tat hybrid cell viability at 50,000 nM |
| --- | --- |
| C=CCN(CC=C)C(=O)c1sc2nc(C)c(Cl)c(C)c2c1N | X (X = >60%) |
| COc1ccc(C(=O)c2sc3nc(C)c(C)c(C)c3c2N)cc1OC | X (X = >60%) |
| Cc1cc(C)c2c(N)c(C(=O)NCC(=O)O)sc2n1 | X (X = >60%) |
| NC(=O)c1sc2nc(C34CC5CC(CC(C5)C3)C4)ccc2c1N | X (X = >60%) |
| NC(=O)c1sc2nc3c(cc2c1N)C(=O)CCC3 | X (X = >60%) |
| NC(=O)c1sc2[nH]c(=O)c(C(=O)O)cc2c1N | X (X = >60%) |
| NC(=O)c1sc2nc(-c3ccc4c(c3)OCCO4)cc(C(F)(F)F)c2c1N | X (X = >60%) |
| Cc1nc2sc(C(=O)c3ccccc3)c(N)c2c(C)c1C | X (X = >60%) |
| NC(=O)c1sc2nc(-c3ccccc3)ccc2c1N | X (X = >60%) |
| CN1CCc2nc3sc(C(N)=O)c(N)c3cc2C1 | X (X = >60%) |
| Cc1cc(NC(=O)c2sc3nc(C)c(C)c(C)c3c2N)no1 | X (X = >60%) |
| NC(=O)c1sc2nc3c(cc2c1N)CCCC3 | X (X = >60%) |
| Cc1nc2sc(C(=O)c3ccc(Cl)cc3)c(N)c2c(C)c1C | X (X = >60%) |
| COCc1cc(C)nc2sc(C(=O)Nc3ccc(C(C)=O)cc3)c(N)c12 | X (X = >60%) |
| CN(C)c1ccnc2sc(C(=O)NCc3ccccc3)c(N)c12 | Y (Y = 30-60%) |
| NC(=O)c1sc2nc(C3CC3)cc(-c3ccc(Cl)cc3)c2c1N | Y (Y = 30-60%) |
| NC(=O)c1sc2nc(-c3ccccc3)cc(-c3ccccc3)c2c1N | Tat hybrid % inhibition at 5,000 nM: Z Tat hybrid cell viability at 50,000 nM: Z U1% inhibition at 10,000 nm: Z (Z = <30%) |
| Cc1ccc(-c2cc(-c3ccc(Cl)cc3)c3c(N)c(C(N)=O)sc3n2)cc1 | Tat hybrid % inhibition at 5,000 nM: Z Tat hybrid cell viability at 50,000 nM: Z U1% inhibition at 10,000 nm: Z (Z = <30%) |
| Cc1ccc2nc3sc(C(N)=O)c(N)c3cc2c1 | X (X = >60%) |
| CCc1ccc2nc3sc(C(N)=O)c(N)c3cc2c1 | X (X = >60%) |
| COc1ccc(-c2c(C(=O)Nc3ccccc3)c(C)nc3sc(C(N)=O)c(N)c23)cc1 | X (X = >60%) |
| Cc1cc(C)c2cc3c(N)c(C(N)=O)sc3nc2c1 | Z (Z = <30%) |
| NC(=O)c1sc2nc(C(F)F)cc(-c3ccco3)c2c1N | Y (Y = 30-60%) |

| SMILES | Tat hybrid cell viability at 50,000 nM |
| --- | --- |
| NC(=O)c1sc2nc3c(cc2c1N)CCCCC3 | X (X = >60%) |
| NC(=O)c1sc2nc3c(c(-c4cccnc4)c2c1N)CCC3 | Z (Z = <30%) |
| Cc1cc(C)c2nc3sc(C(N)=O)c(N)c3cc2c1 | X (X = >60%) |
| COc1ccc2cc3c(N)c(C(N)=O)sc3nc2c1 | Y (Y = 30-60%) |
| COc1ccc2nc3sc(C(N)=O)c(N)c3cc2c1 | X (X = >60%) |
| COc1cc2cc3c(N)c(C(N)=O)sc3nc2cc1OC | X (X = >60%) |
| CCc1nc2sc(C(N)=O)c(N)c2cc1C | X (X = >60%) |
| CCN(CC)C(=O)c1sc2nc(C)cc(C)c2c1N | Y (Y = 30-60%) |
| NC(=O)c1sc2nc3c(cc2c1N)CCC3 | X (X = >60%) |
| N#Cc1cc2c(N)c(C(N)=O)sc2nc1N | Z (Z = <30%) |
| Cc1cc2cc3c(N)c(C(N)=O)sc3nc2cc1C | X (X = >60%) |
| Cc1ccc2cc3c(N)c(C(N)=O)sc3nc2c1C | X (X = >60%) |
| Cc1ccc(-c2cc(C(F)F)nc3sc(C(N)=O)c(N)c23)cc1 | X (X = >60%) |
| COc1ccc(NC(=O)c2sc3nc(N)c(C#N)c(-c4cccs4)c3c2N)cc1 | X (X = >60%) |
| CCOc1ccc2nc3sc(C(N)=O)c(N)c3cc2c1 | X (X = >60%) |
| COC(=O)c1sc2nc(C)c(C)c(C)c2c1N | Y (Y = 30-60%) |
| CC(=O)C1=C(C)Nc2sc(C(N)=O)c(N)c2C1c1cccnc1 (stereo not drawn) | X (X = >60%) |
| COCc1cc(C)nc2sc(C(=O)OC)c(N)c12 | X (X = >60%) |
| Cc1cc(C(F)F)nc2sc(C(N)=O)c(N)c12 | X (X = >60%) |
| Cc1cc(C(F)(F)F)nc2sc(C(N)=O)c(N)c12 | Y (Y = 30-60%) |
| CC(C)c1ccc2nc3sc(C(N)=O)c(N)c3cc2c1 | X (X = >60%) |
| NC(=O)c1sc2nc(-c3cccs3)cc(C(F)(F)F)c2c1N | Y (Y = 30-60%) |
| NC(=O)c1sc2nc(C3CC3)cc(-c3ccccc3)c2c1N | X (X = >60%) |

| SMILES | Tat hybrid cell viability at 50,000 nM |
| --- | --- |
| COc1ccc(-c2c(C#N)c(N)nc3sc(C(N)=O)c(N)c23)cc1OC | Y (Y = 30-60%) |
| COc1ccc(-c2c3c(nc4sc(C(N)=O)c(N)c24)CCCC3)cc1 | X (X = >60%) |
| NC(=O)c1sc2nc(-c3ccccc3)cc(C(F)(F)F)c2c1N | X (X = >60%) |
| N#Cc1c(N)nc2sc(C(N)=O)c(N)c2c1-c1ccc(Br)cc1 | X (X = >60%) |
| COCc1cc(C)c2c(N)c(C(N)=O)sc2n1 | Y (Y = 30-60%) |
| N#Cc1c(N)nc2sc(C(=O)Nc3ccc(Cl)cc3)c(N)c2c1-c1cccs1 | X (X = >60%) |
| COc1ccc(-c2cc(-c3ccc(Cl)cc3)c3c(N)c(C(N)=O)sc3n2)cc1 | X (X = >60%) |
| N#Cc1c(N)nc2sc(C(=O)Nc3ccc(Br)cc3)c(N)c2c1-c1cccs1 | X (X = >60%) |
| COCc1cc(C)nc2sc(C(=O)c3ccc(Cl)cc3)c(N)c12 | X (X = >60%) |
| COCc1cc(C)nc2sc(C(=O)Nc3ccc(NC(C)=O)cc3)c(N)c12 | X (X = >60%) |
| NC(=O)c1sc2nc(C(F)F)cc(-c3ccccc3)c2c1N | X (X = >60%) |
| COCc1cc(C)nc2sc(C(=O)N3CCOCC3)c(N)c12 | Y (Y = 30-60%) |
| NC(=O)c1sc2nc(-c3ccc(Cl)cc3)cc(-c3ccc(Cl)cc3)c2c1N | X (X = >60%) |
| NC(=O)c1sc2nc(-c3ccc(F)cc3)cc(-c3ccccc3)c2c1N | X (X = >60%) |
| COCc1cc(C)nc2sc(C(=O)Nc3cc(C)ccc3F)c(N)c12 | X (X = >60%) |
| CCc1nnc(NC(=O)c2sc3nc(C)cc(COC)c3c2N)s1 | X (X = >60%) |
| NNC(=O)c1sc2ncccc2c1N | X (X = >60%) |
| N#Cc1c(N)nc2sc(C(=O)Nc3ccccc3)c(N)c2c1-c1cccs1 | X (X = >60%) |
| CC(=O)C1=C(C)Nc2sc(C(N)=O)c(N)c2C1c1ccccc1 (stereo not drawn) | Y (Y = 30-60%) |
| Cc1ccc2c(N)c(C(N)=O)sc2n1 [drawing 227] | X (X = >60%) |
| COc1ccc(-c2cc(-c3ccccc3)nc3sc(C(N)=O)c(N)c23)cc1 [drawing 256] | X (X = >60%) |
| COc1ccc(-c2cc(-c3ccccc3)nc3sc(C(N)=O)c(N)c23)cc1 [drawing 268] | Y (Y = 30-60%) |
| Cc1ccc2c(N)c(C(N)=O)sc2n1 [drawing 277] | X (X = >60%) |
